32 molecules from patent publication US11312712B2, “Azabenzimidazoles and their use as AMPA receptor modulators” (Janssen Pharmaceutica NV, priority 2015, dated 2022) can be followed below.

In this experiment the target is GluA1o-γ8 (GRIA1o-CACNG8 fusion construct) (Homo sapiens (Human), UniProt P42261+Q8WXS5). Briefly: Calcium flux assay (FLIPR), inhibition of TARP γ8 dependent AMPA receptor activity. The class given is cell-based. To be noted: GluA1o-γ8 (GRIA1o-CACNG8 fusion) in HEK293 cells, calcium flux after 15 μM glutamate. The text has this: This assay was used to test compounds for their ability to inhibit TARP γ8 dependent AMPA receptor activity. The AMPA receptor is a non-selective cation channel activated by glutamate. Ionotropic glutamate receptors normally desensitize too rapidly to allow detectable calcium influx in a FLIPR assay (Strange et al. (2006). “Functional characterisation of homomeric ionotropic glutamate receptors GluR1-GluR6 in a fluorescence-based high throughput screening assay.” Comb Chem High Throughput Screen 9(2): 147-158). But, this desensitization is incomplete, and a substantial steady-state current remains in the sustained presence of glutamate (Cho et al. (2007). “Two families of TARP isoforms that have distinct effects on the kinetic properties of AMPA receptors and synaptic currents.” Neuron 55(6): 890-904).
An in vitro assay was used to determine the potency of test compounds as inhibitors of the glutamate response of the channel formed by GluA1o-γ8. To ensure a 1:1 stoichiometry of GluA1o and γ8 subunits in the expressed channel, a fusion of the cDNAs for GRIA1o and CACNG8 was used. Following Shi et al (2009) “The stoichiometry of AMPA receptors and TARPs varies by neuronal cell type.” Neuron 62(5): 633-640), the C-terminus of the cDNA for GRIA1o was fused to the N-terminus of the cDNA for γ8. The linker sequence was QQQQQQQQQQEFAT. Channels expressed with this construct appear to have similar properties to channels formed by co-expression of GRIA1o with an excess of CACNG8 (Shi et al. 2009). A clonal cell line in HEK293 cells stably expressing this construct, with a geneticin selection marker, was generated for use in this assay.
Cell expressing the GRIA1o-CACNG8 fusion construct were grown in a monolayer in 96- or 384-well microtiter plates. They were washed with assay buffer (135 mM NaCl, 4 mM KCl, 3 mM CaCl2, 1 mM MgCl2, 5 mM glucose, 10 mM HEPES, pH 7.4, 300 mOs) using a Biotek EL405 plate washer. The cells were then loaded with a calcium-sensitive dye (Calcium-5 or Calcium-6, Molecular Devices) and the test compounds at a range of concentrations. Calcium flux following the addition of 15 μM glutamate was monitored using a Molecular Devices FLIPR Tetra. The fluorescence in each well was normalized to the fluorescence of negative and positive control wells. The negative control wells had no added compounds, and the positive control wells had been incubated with 10 μM CP465022 (a non-subtype-selective AMPA receptor antagonist) (Lazzaro et al. (2002). “Functional characterization of CP-465,022, a selective, noncompetitive AMPA receptor antagonist.” Neuropharmacology 42(2): 143-153). The responses to glutamate as functions of the test compound concentrations were fitted to a four-parameter logistic function. The fitted parameter corresponding to the midpoint was taken to be the potency of inhibition of the compound. The data in Table 4 below illustrates the observed potentcy for the compounds described herein. pIC50 refers to the negative log of the IC50 in molar.

GluA1o-γ8 (GRIA1o-CACNG8 fusion construct), sequence (P42261 other isoform, or with tags, fused parts or gaps): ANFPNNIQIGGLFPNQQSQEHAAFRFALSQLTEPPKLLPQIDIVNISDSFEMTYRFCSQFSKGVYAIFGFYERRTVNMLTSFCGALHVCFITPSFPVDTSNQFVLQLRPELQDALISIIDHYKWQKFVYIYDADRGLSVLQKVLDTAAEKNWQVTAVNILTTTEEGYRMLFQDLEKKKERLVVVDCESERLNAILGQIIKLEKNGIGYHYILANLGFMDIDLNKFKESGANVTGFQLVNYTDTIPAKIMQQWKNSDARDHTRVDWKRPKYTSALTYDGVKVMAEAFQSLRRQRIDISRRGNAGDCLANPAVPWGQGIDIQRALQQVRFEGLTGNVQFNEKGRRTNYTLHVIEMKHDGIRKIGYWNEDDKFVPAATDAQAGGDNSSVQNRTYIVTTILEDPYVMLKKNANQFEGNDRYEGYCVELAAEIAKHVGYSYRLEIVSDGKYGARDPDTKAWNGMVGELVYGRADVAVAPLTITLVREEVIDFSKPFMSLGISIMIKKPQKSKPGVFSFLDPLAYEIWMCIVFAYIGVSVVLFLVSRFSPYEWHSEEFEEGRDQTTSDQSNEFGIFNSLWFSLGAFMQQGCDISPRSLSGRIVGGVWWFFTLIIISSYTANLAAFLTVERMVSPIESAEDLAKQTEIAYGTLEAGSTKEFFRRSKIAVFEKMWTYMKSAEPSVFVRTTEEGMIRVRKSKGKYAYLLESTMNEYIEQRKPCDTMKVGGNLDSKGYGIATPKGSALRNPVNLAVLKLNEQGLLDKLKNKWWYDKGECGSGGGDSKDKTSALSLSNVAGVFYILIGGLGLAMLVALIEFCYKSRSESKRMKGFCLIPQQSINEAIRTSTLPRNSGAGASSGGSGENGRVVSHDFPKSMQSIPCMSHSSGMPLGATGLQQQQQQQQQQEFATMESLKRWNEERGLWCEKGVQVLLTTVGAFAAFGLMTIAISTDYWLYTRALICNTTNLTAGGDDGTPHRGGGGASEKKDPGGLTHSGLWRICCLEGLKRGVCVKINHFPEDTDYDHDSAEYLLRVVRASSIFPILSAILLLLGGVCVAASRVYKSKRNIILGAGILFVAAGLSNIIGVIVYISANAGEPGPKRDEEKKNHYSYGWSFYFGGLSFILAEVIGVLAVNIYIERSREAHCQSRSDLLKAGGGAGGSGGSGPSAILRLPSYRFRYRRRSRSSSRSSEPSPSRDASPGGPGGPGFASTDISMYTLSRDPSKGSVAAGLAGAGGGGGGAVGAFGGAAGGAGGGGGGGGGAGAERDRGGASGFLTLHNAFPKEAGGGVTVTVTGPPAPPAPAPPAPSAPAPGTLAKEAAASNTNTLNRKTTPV

Turning to `Cc1ccc2nc(-c3ccccc3)n(-c3ccc4c(cnn4C(=O)OC(C)(C)C)c3)c2n1` [Example 12, tert-Butyl 5-(5-methyl-2-phenyl-imidazo[4,5-b]pyridin-3-yl)indazole-1-carboxylate], the IC50 (as a rule, the point on the concentration scale where inhibition reaches its midpoint) is 20 nM.
With `FC(F)(F)c1ccc2nc(-c3ccccc3)n(-c3ccc4[nH]ccc4c3)c2n1` [Example 13, 3-(1H-Indol-5-yl)-2-phenyl-5-(trifluoromethyl)imidazo[4,5-b]pyridine], the IC50 is 2 nM.
In the case of `O=c1[nH]c2ccc(-n3c(-c4ccccc4)nc4ccc(C(F)(F)F)nc43)cc2s1` [Example 14, 6-[2-Phenyl-5-(trifluoromethyl)imidazo[4,5-b]pyridin-3-yl]-3H-1,3-benzothiazol-2-one], the IC50 is 0.158 nM.
Next, `O=c1[nH]c2ccc(-n3c(-c4ccccc4)nc4ccc(F)nc43)cc2s1` [Example 15, 6-(5-Fluoro-2-phenyl-imidazo[4,5-b]pyridin-3-yl)-3H-1,3-benzothiazol-2-one]: 3.16 nM.
Next, `O=c1[nH]c2ccc(-n3c(-c4ccc(F)cc4)nc4ccc(C(F)(F)F)nc43)cc2s1` [Example 16, 6-[2-(4-Fluorophenyl)-5-(trifluoromethyl)imidazo[4,5-b]pyridin-3-yl]-3H-1,3-benzothiazol-2-one]: 0.631 nM; `Cc1ccc2nc(-c3ccccc3)n(-c3ccc4[nH]c(=O)sc4c3)c2n1` [Example 17, 6-(5-Methyl-2-phenyl-imidazo[4,5-b]pyridin-3-yl)-3H-1,3-benzothiazol-2-one]: 0.501 nM.
Turning to `COc1ccc2nc(-c3ccccc3)n(-c3ccc4[nH]c(=O)sc4c3)c2n1` [Example 18, 6-(5-Methoxy-2-phenyl-imidazo[4,5-b]pyridin-3-yl)-3H-1,3-benzothiazol-2-one], the IC50 is 3.98 nM.
For `CC(C)(C)c1nc2ccc(C(F)(F)F)nc2n1-c1ccc2[nH]c(=O)sc2c1` [Example 19, 6-[2-tert-Butyl-5-(trifluoromethyl)imidazo[4,5-b]pyridin-3-yl]-3H-1,3-benzothiazol-2-one], the IC50 was 1.26 nM.
As for `O=c1[nH]c2ccc(-n3c(-c4ccc(F)cc4)nc4cccnc43)cc2s1` [Example 20, 6-[2-(4-Fluorophenyl)imidazo[4,5-b]pyridin-3-yl]-3H-1,3-benzothiazol-2-one], the IC50 was 5.01 nM.
As to `O=c1[nH]c2ccc(-n3c(-c4ccc(F)cc4)nc4cccnc43)cc2[nH]1` [Example 21, 5-[2-(4-Fluorophenyl)imidazo[4,5-b]pyridin-3-yl]-1,3-dihydrobenzimidazol-2-one], the IC50 was 10 nM.
For the molecule `Fc1ccc(-c2nc3cccnc3n2-c2ccc3[nH]ncc3c2)cc1` [Example 22, 2-(4-Fluorophenyl)-3-(1H-indazol-5-yl)imidazo[4,5-b]pyridine], the IC50 is 31.6 nM.
On to `O=C1Cc2cc(-n3c(-c4ccc(F)cc4)nc4cccnc43)ccc2N1` [Example 23, 5-[2-(4-Fluorophenyl)imidazo[4,5-b]pyridin-3-yl]indolin-2-one], for which the IC50 is 25.1 nM.
In the case of `O=c1[nH]c2ccc(-n3c(-c4ccc(F)cc4)nc4cccnc43)cc2o1` [Example 24, 6-[2-(4-Fluorophenyl)imidazo[4,5-b]pyridin-3-yl]-3H-1,3-benzoxazol-2-one], the IC50 is 316 nM.
On to `O=c1[nH]c2ccc(-n3c(-c4ccccc4)nc4cccnc43)cc2s1` [Example 25, 6-(2-Phenylimidazo[4,5-b]pyridin-3-yl)-3H-1,3-benzothiazol-2-one], for which the IC50 was 10 nM.
As to `c1ccc(-c2nc3cccnc3n2-c2ccc3[nH]ccc3c2)cc1` [Example 26, 3-(1H-Indol-5-yl)-2-phenyl-imidazo[4,5-b]pyridine], the IC50 was 501 nM.
Take `Cc1ccc2nc(-c3ccc(F)cc3)n(-c3ccc4[nH]c(=O)sc4c3)c2n1` [Example 27, 6-[2-(4-Fluorophenyl)-5-methyl-imidazo[4,5-b]pyridin-3-yl]-3H-1,3-benzothiazol-2-one]: the IC50 was 0.794 nM.
Consider `O=c1[nH]c2ccc(-n3c(-c4ccc(F)nc4)nc4cccnc43)cc2s1` [Example 28, 6-[2-(6-Fluoro-3-pyridyl)imidazo[4,5-b]pyridin-3-yl]-3H-1,3-benzothiazol-2-one], for which the IC50 is 251 nM.
In the case of `Cc1ccc2nc(-c3ccnc(F)c3)n(-c3ccc4[nH]c(=O)sc4c3)c2n1` [Example 29, 6-[2-(2-Fluoro-4-pyridyl)-5-methyl-imidazo[4,5-b]pyridin-3-yl]-3H-1,3-benzothiazol-2-one], the IC50 is 2.51 nM.
The figure for `O=c1[nH]c2ccc(-n3c(-c4ccc(F)cc4)nc4ccc(Cl)nc43)cc2s1` [Example 30, 6-[5-Chloro-2-(4-fluorophenyl)imidazo[4,5-b]pyridin-3-yl]-3H-1,3-benzothiazol-2-one] is 0.2 nM; for `O=c1[nH]c2ccc(-n3c(-c4ccnc(F)c4)nc4ccc(C(F)(F)F)nc43)cc2s1` [Example 31, 6-[2-(2-Fluoro-4-pyridyl)-5-(trifluoromethyl)imidazo[4,5-b]pyridin-3-yl]-3H-1,3-benzothiazol-2-one] it is 0.251 nM; for `O=c1[nH]c2ccc(-n3c(-c4ccccc4)nc4ccc(Br)nc43)cc2s1` [Example 32, 6-(5-Bromo-2-phenyl-imidazo[4,5-b]pyridin-3-yl)-3H-1,3-benzothiazol-2-one] it is 0.501 nM.
Next, `O=C1Cc2cc(-n3c(-c4ccc(F)cc4)nc4ccc(C(F)(F)F)nc43)ccc2N1` [Example 33, 5-[2-(4-Fluorophenyl)-5-(trifluoromethyl)imidazo[4,5-b]pyridin-3-yl]indolin-2-one]: 0.631 nM; `O=C1Cc2cc(-n3c(-c4ccccc4)nc4cccnc43)ccc2N1` [Example 34, 5-(2-Phenylimidazo[4,5-b]pyridin-3-yl)indolin-2-one]: 12.6 nM.
As to `Cc1ccc2nc(-c3ccc(F)cc3)n(-c3ccc4c(c3)CC(=O)N4)c2n1` [Example 35, 5-[2-(4-Fluorophenyl)-5-methyl-imidazo[4,5-b]pyridin-3-yl]indolin-2-one], the IC50 was 3.16 nM.
The figure for `O=C1Cc2cc(-n3c(-c4ccccc4)nc4ccc(C(F)(F)F)nc43)ccc2N1` [Example 36, 5-[2-Phenyl-5-(trifluoromethyl)imidazo[4,5-b]pyridin-3-yl]indolin-2-one] is 0.398 nM; for `O=C1Cc2cc(-n3c(-c4ccc(F)cc4)nc4ccc(F)nc43)ccc2N1` [Example 37, 5-[5-Fluoro-2-(4-fluorophenyl)imidazo[4,5-b]pyridin-3-yl]indolin-2-one] it is 6.31 nM.
With `CC(C)c1nc2ccc(C(F)(F)F)nc2n1-c1ccc2c(c1)CC(=O)N2` [Example 38, 5-[2-Isopropyl-5-(trifluoromethyl)imidazo[4,5-b]pyridin-3-yl]indolin-2-one], the IC50 was 1 nM.
Regarding `O=c1[nH]c2ccc(-n3c(C4CCCC4)nc4ccc(C(F)(F)F)nc43)cc2s1` [Example 39, 6-[2-Cyclopentyl-5-(trifluoromethyl)imidazo[4,5-b]pyridin-3-yl]-3H-1,3-benzothiazol-2-one], the half-maximal inhibitory concentration (IC50) was 0.2 nM.
For the molecule `O=c1[nH]c2ccc(-n3c(C4CCCCC4)nc4ccc(C(F)(F)F)nc43)cc2s1` [Example 40, 6-[2-Cyclohexyl-5-(trifluoromethyl)imidazo[4,5-b]pyridin-3-yl]-3H-1,3-benzothiazol-2-one], the IC50 is 0.158 nM.
As to `O=c1[nH]c2ccc(-n3c(C4CC4)nc4ccc(C(F)(F)F)nc43)cc2s1` [Example 41, 6-[2-Cyclopropyl-5-(trifluoromethyl)imidazo[4,5-b]pyridin-3-yl]-3H-1,3-benzothiazol-2-one], the IC50 is 0.398 nM.
On to `O=c1[nH]c2ccc(-n3c(C4CCOCC4)nc4ccc(C(F)(F)F)nc43)cc2s1` [Example 42, 6-[2-Tetrahydropyran-4-yl-5-(trifluoromethyl)imidazo[4,5-b]pyridin-3-yl]-3H-1,3-benzothiazol-2-one], for which the IC50 was 39.8 nM.
For `FC(F)(F)c1ccc2nc(C3CC3)n(-c3ccc4[nH]ncc4c3)c2n1` [Example 43, 2-Cyclopropyl-3-(1H-indazol-5-yl)-5-(trifluoromethyl)imidazo[4,5-b]pyridine], the IC50 is 2 nM.
